# Data from patent US12492173B2, “Herbicidal substituted N-tetrazolyl aryl carboxamides” (Bayer Aktiengesellschaft, priority 2019, dated 2025).
# Legend:
# Type in all cases: in vivo
# Alopecurus myosuroides [1] = test: Pre-emergence herbicidal action, ALOMY; design: key: % activity: 100 = plants have died, 0 = like control plants; settings: comparative experiment
# Excerpt: (§1) 1. Pre-Emergence Herbicidal Action Against Harmful Plants Seeds of monocotyledonous and dicotyledonous weed plants and crop plants are laid out in sandy loam soil in wood-fiber pots and covered with soil. The compounds of the invention, formulated in the form of wettable powders (WP) or as emulsion concentrates (EC), are then applied to the surface of the covering soil in the form of an aqueous suspension or emulsion at a water application rate equating to 600 to 800 l/ha, with addition of 0.2% wetting agent. After the treatment, the pots are placed in a greenhouse and kept under good growth conditions for the trial plants. The damage to the test plants is scored visually after a test period of 3 weeks by comparison with untreated controls (herbicidal activity in percent (%): 100% activity=the plants have died, 0% activity=like control plants). […] The tables below illustrate, in an exemplary manner, the […] herbicidal action of the compounds according to the invention, the herbicidal activity being stated in percent. [table] In the experiments that follow, herbicidal action of numerous inventive compounds and the known compounds that are structurally closest from D1 (WO 2012/028579 A1) and D2 (WO 2018/202535 A1) were compared under the above-specified conditions by the pre-emergence and post-emergence method. The example numbers given in the tables relate to the compounds disclosed in the respective documents. In addition to the compounds disclosed in D1 and D2, the following compounds V-1 to V-14 that are encompassed by D1 or D2 but are not compounds specified therein were used in the comparative experiments: • V-1: 2-(methylsulfanyl)-3-(methylsulfinyl)-N-(1-methyl-1H-tetrazol-5-yl)-4-(trifluoromethyl)benzamide • V-2: 2-(methylsulfanyl)-3-(methylsulfonyl)-N-(1-methyl-1H-tetrazol-5-yl)-4-(trifluoromethyl)benzamide • V-3: 2,3-bis(ethylsulfanyl)-N-(1-methyl-1H-tetrazol-5-yl)-4-(trifluoromethyl)benzamide • V-4: 2-chloro-3-(ethylsulfanyl)-N-(1-methyl-1H-tetrazol-5-yl)-4-(trifluoromethyl)benzamide • V-5: 2-chloro-4-iodo-3-(methylsulfanyl)-N-(1-methyl-1H-tetrazol-5-yl)benzamide • V-6: 2-chloro-4-iodo-3-(methylsulfinyl)-N-(1-methyl-1H-tetrazol-5-yl)benzamide • V-7: 2-chloro-4-iodo-3-(methylsulfonyl)-N-(1-methyl-1H-tetrazol-5-yl)benzamide • V-8: 2-bromo-3-(methylsulfanyl)-N-(1-methyl-1H-tetrazol-5-yl)-4-(trifluoromethyl)benzamide • V-9: 2-bromo-3-(methylsulfinyl)-N-(1-methyl-1H-tetrazol-5-yl)-4-(trifluoromethyl)benzamide • V-10: 2-bromo-3-(methylsulfonyl)-N-(1-methyl-1H-tetrazol-5-yl)-4-(trifluoromethyl)benzamide • V-11: 2-bromo-3-(ethylsulfanyl)-N-(1-methyl-1H-tetrazol-5-yl)-4-(trifluoromethyl)benzamide • V-12: 2-bromo-3-(ethylsulfinyl)-N-(1-methyl-1H-tetrazol-5-yl)-4-(trifluoromethyl)benzamide • V-13: 2-bromo-3-(ethylsulfonyl)-N-(1-methyl-1-1H-tetrazol-5-yl)-4-(trifluoromethyl)benzamide • V-14: 2-cyclopropyl-3-(ethylsulfanyl)-N-(1-methyl-1H-tetrazol-5-yl)-4-(trifluoromethyl)benzamide Herbicidal Pre-Emergence Action: […]
# Avena fatua = test: Post-emergence herbicidal action, AVEFA; design: key: % herbicidal action vs untreated; 100 = plants died, 0 = like control; settings: comparative experiment, post-emergence, 5 g of a.i./ha
# Procedure: (§2) [table] 2. Post-Emergence Herbicidal Action Against Harmful Plants Seeds of monocotyledonous and dicotyledonous weed and crop plants are laid out in sandy loam soil in wood-fiber pots, covered with soil and cultivated in a greenhouse under good growth conditions. 2 to 3 weeks after sowing, the test plants are treated at the one-leaf stage. The compounds of the invention, formulated in the form of wettable powders (WP) or as emulsion concentrates (EC), are then sprayed onto the green parts of the plants in the form of an aqueous suspension or emulsion at a water application rate equating to 600 to 800 l/ha, with addition of 0.2% wetting agent. After the test plants have been left to stand in the greenhouse under optimal growth conditions for about 3 weeks, the action of the preparations is assessed visually in comparison to untreated controls (herbicidal action in percent (%): 100% activity=the plants have died, 0% activity=like control plants). […] The tables below illustrate, in an exemplary manner, the post-emergence herbicidal action of the compounds according to the invention, the herbicidal activity being stated in percent. In the experiments that follow, herbicidal action of numerous inventive compounds and the known compounds that are structurally closest from D1 (WO 2012/028579 A1) and D2 (WO 2018/202535 A1) were compared under the above-specified conditions by the pre-emergence and post-emergence method. The example numbers given in the tables relate to the compounds disclosed in the respective documents. In addition to the compounds disclosed in D1 and D2, the following compounds V-1 to V-14 that are encompassed by D1 or D2 but are not compounds specified therein were used in the comparative experiments: • V-1: 2-(methylsulfanyl)-3-(methylsulfinyl)-N-(1-methyl-1H-tetrazol-5-yl)-4-(trifluoromethyl)benzamide • V-2: 2-(methylsulfanyl)-3-(methylsulfonyl)-N-(1-methyl-1H-tetrazol-5-yl)-4-(trifluoromethyl)benzamide • V-3: 2,3-bis(ethylsulfanyl)-N-(1-methyl-1H-tetrazol-5-yl)-4-(trifluoromethyl)benzamide • V-4: 2-chloro-3-(ethylsulfanyl)-N-(1-methyl-1H-tetrazol-5-yl)-4-(trifluoromethyl)benzamide • V-5: 2-chloro-4-iodo-3-(methylsulfanyl)-N-(1-methyl-1H-tetrazol-5-yl)benzamide • V-6: 2-chloro-4-iodo-3-(methylsulfinyl)-N-(1-methyl-1H-tetrazol-5-yl)benzamide • V-7: 2-chloro-4-iodo-3-(methylsulfonyl)-N-(1-methyl-1H-tetrazol-5-yl)benzamide • V-8: 2-bromo-3-(methylsulfanyl)-N-(1-methyl-1H-tetrazol-5-yl)-4-(trifluoromethyl)benzamide • V-9: 2-bromo-3-(methylsulfinyl)-N-(1-methyl-1H-tetrazol-5-yl)-4-(trifluoromethyl)benzamide • V-10: 2-bromo-3-(methylsulfonyl)-N-(1-methyl-1H-tetrazol-5-yl)-4-(trifluoromethyl)benzamide • V-11: 2-bromo-3-(ethylsulfanyl)-N-(1-methyl-1H-tetrazol-5-yl)-4-(trifluoromethyl)benzamide • V-12: 2-bromo-3-(ethylsulfinyl)-N-(1-methyl-1H-tetrazol-5-yl)-4-(trifluoromethyl)benzamide • V-13: 2-bromo-3-(ethylsulfonyl)-N-(1-methyl-1-1H-tetrazol-5-yl)-4-(trifluoromethyl)benzamide • V-14: 2-cyclopropyl-3-(ethylsulfanyl)-N-(1-methyl-1H-tetrazol-5-yl)-4-(trifluoromethyl)benzamide Herbicidal Pre-Emergence Action: […]
# Stellaria media [2] = test: Post-emergence herbicidal action, STEME; design: key: % herbicidal action vs untreated; 100 = plants died, 0 = like control; settings: comparative experiment, post-emergence, 5 g of a.i./ha
# Procedure, shortened: (§3)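 WP or EC formulations, diluted in water at 600 to 800 l/ha with 0.2% wetting agent, are sprayed onto green parts of one-leaf-stage plants grown in sandy loam. Visual assessment of percent damage relative to untreated controls follows after approximately 3 weeks in the greenhouse.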
# Polygonum convolvulus = test: Post-emergence herbicidal action, POLCO; settings: comparative experiment, post-emergence, 5 g of a.i./ha
# Procedure, shortened: as §3
# Veronica persica [3] = test: Pre-emergence herbicidal action, VERPE; design: key to Herbicidal action against VERPE: % activity: 100 = plants have died, 0 = like control plants; settings: comparative experiment, 20 g of a.i./ha
# Procedure, shortened: (§4)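 Sown pots (sandy loam) sprayed pre-emergence → greenhouse → visual rating at 3 weeks; % activity vs untreated control, 100% = dead.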
# Veronica persica [4] = test: Post-emergence herbicidal action, VERPE; design: key: % herbicidal action vs untreated; 100 = plants died, 0 = like control; settings: comparative experiment, post-emergence
# Procedure, shortened: as §3
# Lolium multiflorum = test: Post-emergence herbicidal action, LOLMU; design: key: % herbicidal action: 100 = plants died, 0 = like control; settings: comparative experiment, post-emergence, 5 g of a.i./ha
# Procedure: as §2
# Matricaria inodora [5] = test: Post-emergence herbicidal action, MATIN; design: key: % herbicidal action vs untreated; 100 = plants died, 0 = like control; settings: comparative experiment, post-emergence
# Procedure, shortened: as §3
# Matricaria inodora [6] = test: Pre-emergence herbicidal action, MATIN; design: key to Herbicidal action against MATIN: % activity: 100 = plants have died, 0 = like control plants; settings: comparative experiment, 20 g of a.i./ha
# Procedure, shortened: as §4
# Alopecurus myosuroides [7] = test: Post-emergence herbicidal action, ALOMY; design: key: % herbicidal action vs untreated; 100 = plants died, 0 = like control; settings: comparative experiment, post-emergence, 5 g of a.i./ha
# Procedure, shortened: as §3
# Setaria viridis [8] = test: Pre-emergence herbicidal action, SETVI; design: key to Herbicidal action against SETVI: % activity: 100 = plants have died, 0 = like control plants; settings: comparative experiment
# Procedure, shortened: as §4
# Abutilon theophrasti [9] = test: Pre-emergence herbicidal action, ABUTH; design: key to Herbicidal action against ABUTH: % activity: 100 = plants have died, 0 = like control plants; settings: comparative experiment
# Procedure, shortened: as §4
# Cyperus esculentus = test: Pre-emergence herbicidal action, CYPES; design: key: % activity: 100 = plants have died, 0 = like control plants; settings: comparative experiment
# Excerpt: as §1
# Viola tricolor [10] = test: Pre-emergence herbicidal action, VIOTR; design: key to Herbicidal action against VIOTR: % activity: 100 = plants have died, 0 = like control plants; settings: comparative experiment, 80 g of a.i./ha
# Procedure, shortened: as §4
# Viola tricolor [11] = test: Post-emergence herbicidal action, VIOTR; design: key: % herbicidal action vs untreated; 100 = plants died, 0 = like control; settings: comparative experiment, post-emergence, 20 g of a.i./ha
# Procedure, shortened: as §3
# Abutilon theophrasti [12] = test: Post-emergence herbicidal action, ABUTH; design: key: % herbicidal action vs untreated; 100 = plants died, 0 = like control; settings: comparative experiment, post-emergence, 20 g of a.i./ha
# Procedure, shortened: as §3
# Amaranthus retroflexus = test: Post-emergence herbicidal action, AMARE; design: key: % herbicidal action vs untreated; 100 = plants died, 0 = like control; settings: comparative experiment, post-emergence, 20 g of a.i./ha
# Procedure, shortened: as §3
# Echinochloa crus-galli [13] = test: Post-emergence herbicidal action, ECHCG; design: key: % herbicidal action vs untreated; 100 = plants died, 0 = like control; settings: comparative experiment, post-emergence, 20 g of a.i./ha
# Procedure, shortened: as §3
# Setaria viridis [14] = test: Post-emergence herbicidal action, SETVI; design: key: % herbicidal action vs untreated; 100 = plants died, 0 = like control; settings: comparative experiment, post-emergence, 20 g of a.i./ha
# Procedure, shortened: as §3
# Stellaria media [15] = test: Pre-emergence herbicidal action, STEME; design: key to Herbicidal action against STEME: % activity: 100 = plants have died, 0 = like control plants; settings: comparative experiment, 80 g of a.i./ha
# Procedure, shortened: as §4
# Echinochloa crus-galli [16] = test: Pre-emergence herbicidal action, ECHCG; settings: Echinochloa crus-galli, 504 h, comparative experiment, 80 g of a.i./ha, read-out: Herbicidal action against ECHCG
# Procedure, shortened: as §4
smiles,measurement,setting,value
"CCSc1c(C(F)(F)F)ccc(C(=O)Nc2nnnn2C)c1Cl [Example V-4, 2-chloro-3-(ethylsulfanyl)-N-(1-methyl-1H-tetrazol-5-yl)-4-(trifluoromethyl)benzamide, reference compound]",Herbicidal action against ALOMY,Alopecurus myosuroides [1]; 20 g of a.i./ha,40
same,Herbicidal action against AVEFA,Avena fatua,30
same,Herbicidal action against STEME,Stellaria media [2],60
same,Herbicidal action against POLCO,Polygonum convolvulus,30
same,Herbicidal action against VERPE,Veronica persica [3],80
same,Herbicidal action against VERPE,Veronica persica [4]; 5 g of a.i./ha,80
same,Herbicidal action against LOLMU,Lolium multiflorum,10
same,Herbicidal action against MATIN,Matricaria inodora [5]; 5 g of a.i./ha,60
same,Herbicidal action against MATIN,Matricaria inodora [6],50
same,Herbicidal action against ALOMY,Alopecurus myosuroides [7],40
same,Herbicidal action against SETVI,Setaria viridis [8]; 20 g of a.i./ha,60
same,Herbicidal action against ABUTH,Abutilon theophrasti [9]; 20 g of a.i./ha,0
same,Herbicidal action against CYPES,Cyperus esculentus; 20 g of a.i./ha,0
"CC[S+]([O-])c1c(C(F)(F)F)ccc(C(=O)Nc2nnnn2C)c1Br (stereo not drawn) [Example V-12, 2-bromo-3-(ethylsulfinyl)-N-(1-methyl-1H-tetrazol-5-yl)-4-(trifluoromethyl)benzamide, reference compound]",Herbicidal action against ALOMY,Alopecurus myosuroides [1]; 80 g of a.i./ha,0
same,Herbicidal action against VIOTR,Viola tricolor [10],0
same,Herbicidal action against VIOTR,Viola tricolor [11],0
same,Herbicidal action against VERPE,Veronica persica [4]; 20 g of a.i./ha,0
same,Herbicidal action against ABUTH,Abutilon theophrasti [12],0
same,Herbicidal action against AMARE,Amaranthus retroflexus,10
same,Herbicidal action against MATIN,Matricaria inodora [5]; 20 g of a.i./ha,0
same,Herbicidal action against ECHCG,Echinochloa crus-galli [13],0
same,Herbicidal action against SETVI,Setaria viridis [14],20
same,Herbicidal action against STEME,Stellaria media [15],0
same,Herbicidal action against SETVI,Setaria viridis [8]; 80 g of a.i./ha,0
same,Herbicidal action against ABUTH,Abutilon theophrasti [9]; 80 g of a.i./ha,0
same,Herbicidal action against CYPES,Cyperus esculentus; 80 g of a.i./ha,0
same,pest or weed control at 80 g/ha,Echinochloa crus-galli [16],0%
